Measurements reported in US4835160A, “Derivatives of pyridoindole, having anti-tumor properties” (Sanofi, priority 1986, dated 1989).

Legend:
leukemia L 1210 [1] = test: Test for leukemia L 1210, IP/IP, D1-D5; type: in vivo, CDF1 hybrid mice; details: for Number of survivors: day D60; for T/C %: survival time
Procedure: (§1) The antitumour activity was tested in vivo on various tumours inoculated in various ways according to the following general protocol:
(§2) All the male or female mice are inoculated on day D0 with a known quantity of viable tumour cells for ascitic tumours or with a known tumour fragment for solid tumours.
(§3) They are then distributed into various groups. Each group, corresponding to the animals treated by the product under test, is made up of 10 mice. The product under test is dissolved in distilled water and it is administered n times (Dx-Dy), n, y, and x varying according to the protocol chosen, at the rate of 0.1 ml of solution per 10 g by weight of mice treated and at specific doses for each protocol.
(§4) The "negative control" group, corresponding to the animals which are not treated by the product, contains 2√N animals, N being equal to or greater than the total number of mice treated by the product in the same experiment.
(§5) Finally, the tests can also be carried out at the same time as the study of a group called "positive control", of ten animals, which is treated by a molecule, known for its antitumour activity and which can vary according to the protocol chosen, in the same conditions as the groups treated by the product under test.
(§6) The antitumour activity is evaluated, in the case of ascitic tumours, by considering the increase in the survival time of the animals treated in comparison to that of the animals in the "negative control" group, according to the formula: [formula]
(§7) Also, a product is considered as toxic at the dose studied when this T/C value is equal to or less than 85%. In addition, a product is also considered as toxic at the dose studied when the weight variation, expressed in grams and calculated by the formula: […]
(c) Test for leukemia L 1210, IP/IP, D-5 (GERAN et al., Cancer cheomother.,1972, 2, 07-57).
(§8) The tests are carried out with CDF1 hybrid mice inoculated by intraperitoneal route with 10^5 leukemia cells from the L 1210 line. The compound under test is administered for 5 days (D1-D5) by intraperitoneal route. The positive control for the test is 5-fluorouracile administered in the same conditions. The number of surviving animals is evaluated on day D60.

[2] = test system: leukemia tumour line L 1210; test: In vitro cytotoxic activity on leukemia tumour line L 1210; type: cell-based; details: Mus musculus, L1210, 48 h, L 1210, 48 hours contact, 37° C.; read-out: I D 50 (concentration which inhibits the proliferation of the cells by 50%)
Method in brief: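 Exponentially growing L 1210 leukemia cells were exposed to increasing compound concentrations at 37 °C under CO2 and counted every 24 h. ID50, the concentration inhibiting proliferation by 50%, was calculated after 48 h contact.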

reticulosarcoma M5-M5076 = test: Test for reticulosarcoma M5-M5076; type: in vivo, BDF1 hybrid mice; details: D1,5,9,13,17; for Number of survivors: day D75; for T/C %: survival time
Procedure: as §1, §2, §3, §4, §5, §6, §7
The tests are carried out with BDF1 hybrid mice inoculated by intraperitoneal route with 10^6 cells of the M5-M5076 line. The compound under test is administered 5 times successively in sequence (D1,5,9,13,17) by intraperitoneal route. The positive control for the test is cyclophosphamide administered in the same conditions. The number of surviving animals is evaluated on day D75.

leukemia L 1210 [3] = test: Test for leukemia L 1210 IP/D1 IV; type: in vivo, CDF1 hybrid mice; details: 20 mg/kg IV
Procedure: as §1, §2, §3, §4, §5, §6, §7, §8
(g) Test for leukemia L 1210 IP/D1 IV. (GERAN et al., Cancer Chemother., 1972, 2, 07-57).
The test is carried out according to the same protocol as that described for test (c), the compound under test being administered by intravenous route only on day D1.

SMILES: CCN(CC)CCCNc1ncc(C)c2[nH]c3ccc(O)cc3c12 [Derivative No. 7, 1-(diethylaminopropylamino)-8-hydroxy-4-methyl-5H-pyrido[4,3-b]indole]
- Median day of survival (leukemia L 1210 [1]; 0.625 mg/kg IP): 11.75 days
- Variation by weight (leukemia L 1210 [1]; 0.625 mg/kg IP): -0.9 g
- Number of survivors (leukemia L 1210 [1]; 0.625 mg/kg IP): 0/10
- T/C % (leukemia L 1210 [1]; 0.625 mg/kg IP): 133%
- Median day of survival (leukemia L 1210 [1]; 1.25 mg/kg IP): 14.25 days
- Variation by weight (leukemia L 1210 [1]; 1.25 mg/kg IP): -1.2 g
- Number of survivors (leukemia L 1210 [1]; 1.25 mg/kg IP): 0/10
- T/C % (leukemia L 1210 [1]; 1.25 mg/kg IP): 162%
- Median day of survival (leukemia L 1210 [1]; 2.5 mg/kg IP): 20.75 days
- Variation by weight (leukemia L 1210 [1]; 2.5 mg/kg IP): -1.1 g
- Number of survivors (leukemia L 1210 [1]; 2.5 mg/kg IP): 4/10
- T/C % (leukemia L 1210 [1]; 2.5 mg/kg IP): 236%
- Median day of survival (leukemia L 1210 [1]; 5 mg/kg IP): 14.0 days
- Variation by weight (leukemia L 1210 [1]; 5 mg/kg IP): -0.8 g
- Number of survivors (leukemia L 1210 [1]; 5 mg/kg IP): 2/10
- T/C % (leukemia L 1210 [1]; 5 mg/kg IP): 159%
- Median day of survival (leukemia L 1210 [1]; 10 mg/kg IP): 37.0 days
- Variation by weight (leukemia L 1210 [1]; 10 mg/kg IP): -2.2 g
- Number of survivors (leukemia L 1210 [1]; 10 mg/kg IP): 5/10
- T/C % (leukemia L 1210 [1]; 10 mg/kg IP): 420%
- Median day of survival (leukemia L 1210 [1]; 20 mg/kg IP): 35.0 days
- Variation by weight (leukemia L 1210 [1]; 20 mg/kg IP): -4.2 g
- Number of survivors (leukemia L 1210 [1]; 20 mg/kg IP): 5/10
- T/C % (leukemia L 1210 [1]; 20 mg/kg IP): 398%
- Median day of survival (leukemia L 1210 [1]; 30 mg/kg IP): 8.25 days
- Variation by weight (leukemia L 1210 [1]; 30 mg/kg IP): -5.6 g
- Number of survivors (leukemia L 1210 [1]; 30 mg/kg IP): 0/10
- T/C % (leukemia L 1210 [1]; 30 mg/kg IP): 94%
- IC50 [2]: 0.06 µM
- Median day of survival (reticulosarcoma M5-M5076; 2.5 mg/kg IP): 31.25 days
- Variation by weight (reticulosarcoma M5-M5076; 2.5 mg/kg IP): -1.0 g
- Number of survivors (reticulosarcoma M5-M5076; 2.5 mg/kg IP): 0/10
- T/C % (reticulosarcoma M5-M5076; 2.5 mg/kg IP): 120%
- Median day of survival (reticulosarcoma M5-M5076; 5 mg/kg IP): 33.0 days
- Variation by weight (reticulosarcoma M5-M5076; 5 mg/kg IP): -1.4 g
- Number of survivors (reticulosarcoma M5-M5076; 5 mg/kg IP): 1/10
- T/C % (reticulosarcoma M5-M5076; 5 mg/kg IP): 127%
- Median day of survival (reticulosarcoma M5-M5076; 10 mg/kg IP): 37.25 days
- Variation by weight (reticulosarcoma M5-M5076; 10 mg/kg IP): -1.8 g
- Number of survivors (reticulosarcoma M5-M5076; 10 mg/kg IP): 0/10
- T/C % (reticulosarcoma M5-M5076; 10 mg/kg IP): 143%
- Median day of survival (reticulosarcoma M5-M5076; 20 mg/kg IP): 41.0 days
- Variation by weight (reticulosarcoma M5-M5076; 20 mg/kg IP): -1.9 g
- Number of survivors (reticulosarcoma M5-M5076; 20 mg/kg IP): 0/10
- T/C % (reticulosarcoma M5-M5076; 20 mg/kg IP): 158%
- Median day of survival (reticulosarcoma M5-M5076; 40 mg/kg IP): 42.0 days
- Variation by weight (reticulosarcoma M5-M5076; 40 mg/kg IP): -1.8 g
- Number of survivors (reticulosarcoma M5-M5076; 40 mg/kg IP): 1/10
- T/C % (reticulosarcoma M5-M5076; 40 mg/kg IP): 161%

SMILES: Cc1cnc(NCCCN(C)C)c2c1[nH]c1ccc(O)cc12 [Derivative No. 10, 1-(3-dimethylaminopropylamino)-8-hydroxy-4-methyl-5H-pyrido[4,3-b]indole]
- Median day of survival (leukemia L 1210 [1]; 1.25 mg/kg IP): 12.75 days
- Variation by weight (leukemia L 1210 [1]; 1.25 mg/kg IP): -1.7 g
- Number of survivors (leukemia L 1210 [1]; 1.25 mg/kg IP): 1/10
- T/C % (leukemia L 1210 [1]; 1.25 mg/kg IP): 145%
- Median day of survival (leukemia L 1210 [1]; 2.5 mg/kg IP): 20.0 days
- Variation by weight (leukemia L 1210 [1]; 2.5 mg/kg IP): -2.1 g
- Number of survivors (leukemia L 1210 [1]; 2.5 mg/kg IP): 4/10
- T/C % (leukemia L 1210 [1]; 2.5 mg/kg IP): 227%
- Median day of survival (leukemia L 1210 [1]; 5 mg/kg IP): > 60 days
- Variation by weight (leukemia L 1210 [1]; 5 mg/kg IP): -2.7 g
- Number of survivors (leukemia L 1210 [1]; 5 mg/kg IP): 6/10
- T/C % (leukemia L 1210 [1]; 5 mg/kg IP): > 682%
- Median day of survival (leukemia L 1210 [1]; 10 mg/kg IP): 15.25 days
- Variation by weight (leukemia L 1210 [1]; 10 mg/kg IP): -3.1 g
- Number of survivors (leukemia L 1210 [1]; 10 mg/kg IP): 4/10
- T/C % (leukemia L 1210 [1]; 10 mg/kg IP): 173%
- Median day of survival (leukemia L 1210 [1]; 20 mg/kg IP): 8.4 days
- Variation by weight (leukemia L 1210 [1]; 20 mg/kg IP): -5.6 g
- Number of survivors (leukemia L 1210 [1]; 20 mg/kg IP): 0/10
- T/C % (leukemia L 1210 [1]; 20 mg/kg IP): 95%
- Median day of survival (reticulosarcoma M5-M5076; 1.25 mg/kg IP): 34.0 days
- Variation by weight (g) (reticulosarcoma M5-M5076; 1.25 mg/kg IP): +2.7 g
- Number of survivors (reticulosarcoma M5-M5076; 1.25 mg/kg IP): 1/10
- T/C % (reticulosarcoma M5-M5076; 1.25 mg/kg IP): 133%
- Median day of survival (reticulosarcoma M5-M5076; 2.5 mg/kg IP): 33.0 days
- Variation by weight (g) (reticulosarcoma M5-M5076; 2.5 mg/kg IP): +0.4 g
- Number of survivors (reticulosarcoma M5-M5076; 2.5 mg/kg IP): 1/10
- T/C % (reticulosarcoma M5-M5076; 2.5 mg/kg IP): 129%
- Median day of survival (reticulosarcoma M5-M5076; 5 mg/kg IP): 40.0 days
- Variation by weight (g) (reticulosarcoma M5-M5076; 5 mg/kg IP): +2.1 g
- Number of survivors (reticulosarcoma M5-M5076; 5 mg/kg IP): 1/10
- T/C % (reticulosarcoma M5-M5076; 5 mg/kg IP): 156%
- Median day of survival (reticulosarcoma M5-M5076; 10 mg/kg IP): 42.0 days
- Variation by weight (g) (reticulosarcoma M5-M5076; 10 mg/kg IP): +1.2 g
- Number of survivors (reticulosarcoma M5-M5076; 10 mg/kg IP): 1/10
- T/C % (reticulosarcoma M5-M5076; 10 mg/kg IP): 164%
- Median day of survival (reticulosarcoma M5-M5076; 20 mg/kg IP): 44.75 days
- Variation by weight (reticulosarcoma M5-M5076; 20 mg/kg IP): 0.0 g
- Number of survivors (reticulosarcoma M5-M5076; 20 mg/kg IP): 1/10
- T/C % (reticulosarcoma M5-M5076; 20 mg/kg IP): 175%
- Median day of survival (reticulosarcoma M5-M5076; 40 mg/kg IP): 46.0 days
- Variation by weight (reticulosarcoma M5-M5076; 40 mg/kg IP): -2.8 g
- Number of survivors (reticulosarcoma M5-M5076; 40 mg/kg IP): 2/10
- T/C % (reticulosarcoma M5-M5076; 40 mg/kg IP): 180%

SMILES: Cc1cnc(NCCCN(C)C)c2c3cc(O)ccc3n(C)c12 [Derivative No. 14, 4,5-dimethyl 1(3-dimethylaminopropylamino)-8-hydroxy-5H-pyrido[4,3-b]indole]
- IC50 [2]: 0.014 µM
- Median day of survival (leukemia L 1210 [3]): 14.0 days
- Variation by weight (leukemia L 1210 [3]): -1.1 g
- Number of survivors (leukemia L 1210 [3]; day D60): 0/10
- T/C % (leukemia L 1210 [3]; survival time): 157%
